From ChEMBL document CHEMBL3352570, “ST7612AA1, a thioacetate-ω(γ-lactam carboxamide) derivative selected from a novel generation of oral HDAC inhibitors” (J Med Chem, 2014)

Legend:
Histone deacetylase 11 = biological target: T1, Histone deacetylase 11 (Homo sapiens, UniProt Q96DB2); experiment: Inhibition of HDAC11 (unknown origin) using fluorogenic tetrapeptide RHKK(Ac) substrate by fluorescence assay
T1 sequence (Q96DB2 whole entry): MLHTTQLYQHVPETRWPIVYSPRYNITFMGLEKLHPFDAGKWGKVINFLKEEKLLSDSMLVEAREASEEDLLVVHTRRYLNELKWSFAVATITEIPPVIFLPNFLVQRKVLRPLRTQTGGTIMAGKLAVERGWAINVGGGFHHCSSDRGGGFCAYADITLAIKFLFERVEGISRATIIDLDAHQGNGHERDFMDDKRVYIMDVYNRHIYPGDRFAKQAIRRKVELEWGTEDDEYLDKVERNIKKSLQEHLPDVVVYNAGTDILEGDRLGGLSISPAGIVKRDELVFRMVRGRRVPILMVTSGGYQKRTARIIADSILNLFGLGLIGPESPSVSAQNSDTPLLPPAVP

Histone deacetylase 3 = Histone deacetylase 3 (Homo sapiens, UniProt O15379); experiment: Inhibition of HDAC3 (unknown origin) using fluorogenic tetrapeptide RHKK(Ac) substrate by fluorescence assay
Histone deacetylase 1 = Histone deacetylase 1 (Homo sapiens, UniProt Q13547); experiment: Inhibition of HDAC1 (unknown origin) using fluorogenic tetrapeptide RHKK(Ac) substrate by fluorescence assay
Histone deacetylase 8 = biological target: T2, Histone deacetylase 8 (Homo sapiens, UniProt Q9BY41); experiment: Inhibition of HDAC8 (unknown origin) using fluorogenic tetrapeptide RHK(Ac)K(Ac) substrate by fluorescence assay
T2 sequence (Q9BY41 whole entry): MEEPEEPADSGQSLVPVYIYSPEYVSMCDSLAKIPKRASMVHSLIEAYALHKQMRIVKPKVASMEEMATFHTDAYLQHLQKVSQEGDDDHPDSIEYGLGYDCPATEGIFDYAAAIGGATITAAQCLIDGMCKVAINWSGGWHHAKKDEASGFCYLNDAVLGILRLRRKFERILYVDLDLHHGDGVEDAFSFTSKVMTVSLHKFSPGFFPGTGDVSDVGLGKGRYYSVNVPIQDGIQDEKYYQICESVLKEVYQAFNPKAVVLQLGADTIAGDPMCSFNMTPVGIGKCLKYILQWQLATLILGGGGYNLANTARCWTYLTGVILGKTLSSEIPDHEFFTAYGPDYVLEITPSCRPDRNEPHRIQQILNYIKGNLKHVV

[1] = biological target: T3, Protein deacetylase HDAC6 (Homo sapiens, UniProt Q9UBN7); experiment: Inhibition of HDAC6 (unknown origin) using fluorogenic tetrapeptide RHKK(Ac) substrate by fluorescence assay
T3 sequence (Q9UBN7 whole entry): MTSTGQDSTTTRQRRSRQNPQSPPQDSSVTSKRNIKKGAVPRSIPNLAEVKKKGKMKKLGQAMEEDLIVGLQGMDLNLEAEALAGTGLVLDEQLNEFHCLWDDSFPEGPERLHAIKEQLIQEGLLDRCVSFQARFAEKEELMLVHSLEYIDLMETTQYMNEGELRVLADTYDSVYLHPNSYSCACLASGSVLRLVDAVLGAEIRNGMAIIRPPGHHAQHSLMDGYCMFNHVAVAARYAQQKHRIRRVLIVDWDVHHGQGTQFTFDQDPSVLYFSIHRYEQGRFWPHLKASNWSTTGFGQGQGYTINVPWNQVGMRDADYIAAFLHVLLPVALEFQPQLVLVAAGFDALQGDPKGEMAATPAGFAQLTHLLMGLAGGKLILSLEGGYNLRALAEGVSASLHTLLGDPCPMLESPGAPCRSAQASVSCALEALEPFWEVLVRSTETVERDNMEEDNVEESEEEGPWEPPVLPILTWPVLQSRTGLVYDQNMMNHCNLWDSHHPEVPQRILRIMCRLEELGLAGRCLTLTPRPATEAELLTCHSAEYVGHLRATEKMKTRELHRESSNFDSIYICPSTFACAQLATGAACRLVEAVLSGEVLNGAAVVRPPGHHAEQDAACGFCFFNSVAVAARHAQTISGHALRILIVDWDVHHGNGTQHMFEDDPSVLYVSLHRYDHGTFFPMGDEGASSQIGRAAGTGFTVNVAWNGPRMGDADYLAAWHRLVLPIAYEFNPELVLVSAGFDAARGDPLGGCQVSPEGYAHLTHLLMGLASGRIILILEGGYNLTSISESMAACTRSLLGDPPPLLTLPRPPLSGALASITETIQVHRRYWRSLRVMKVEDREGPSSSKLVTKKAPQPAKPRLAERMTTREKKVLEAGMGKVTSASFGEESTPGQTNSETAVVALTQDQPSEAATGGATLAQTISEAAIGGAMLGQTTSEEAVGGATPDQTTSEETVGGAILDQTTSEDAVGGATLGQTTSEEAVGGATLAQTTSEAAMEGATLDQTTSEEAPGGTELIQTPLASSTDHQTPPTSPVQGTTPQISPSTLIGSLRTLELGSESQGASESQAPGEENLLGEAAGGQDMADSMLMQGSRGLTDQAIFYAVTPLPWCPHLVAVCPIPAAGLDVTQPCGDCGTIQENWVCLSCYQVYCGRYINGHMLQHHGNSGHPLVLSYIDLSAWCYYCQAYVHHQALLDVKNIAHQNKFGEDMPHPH

Histone deacetylase 2 = Histone deacetylase 2 (Homo sapiens, UniProt Q92769); experiment: Inhibition of HDAC2 (unknown origin) using fluorogenic tetrapeptide RHKK(Ac) substrate by fluorescence assay
[2] = biological target: T4, Polyamine deacetylase HDAC10 (Homo sapiens, UniProt Q969S8); experiment: Inhibition of HDAC10 (unknown origin) using fluorogenic tetrapeptide RHKK(Ac) substrate by fluorescence assay
T4 sequence (Q969S8 whole entry): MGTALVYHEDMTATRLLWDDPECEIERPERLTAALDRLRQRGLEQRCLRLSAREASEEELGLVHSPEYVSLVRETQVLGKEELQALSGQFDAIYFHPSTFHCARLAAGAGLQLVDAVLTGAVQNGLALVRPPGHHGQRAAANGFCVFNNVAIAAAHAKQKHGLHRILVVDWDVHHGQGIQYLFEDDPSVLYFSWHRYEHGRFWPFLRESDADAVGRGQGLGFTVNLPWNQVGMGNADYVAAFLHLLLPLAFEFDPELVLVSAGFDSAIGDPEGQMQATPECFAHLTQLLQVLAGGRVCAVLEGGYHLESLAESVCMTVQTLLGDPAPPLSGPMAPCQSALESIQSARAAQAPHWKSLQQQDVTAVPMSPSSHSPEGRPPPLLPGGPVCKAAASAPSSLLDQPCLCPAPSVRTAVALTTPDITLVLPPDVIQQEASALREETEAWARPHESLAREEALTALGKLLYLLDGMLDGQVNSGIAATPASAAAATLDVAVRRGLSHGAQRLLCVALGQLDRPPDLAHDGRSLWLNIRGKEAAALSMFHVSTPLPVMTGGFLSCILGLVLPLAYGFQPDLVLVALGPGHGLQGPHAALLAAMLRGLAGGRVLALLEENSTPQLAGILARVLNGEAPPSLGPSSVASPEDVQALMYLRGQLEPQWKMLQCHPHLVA

Chain of Histone deacetylase 1 (Q13547 whole entry): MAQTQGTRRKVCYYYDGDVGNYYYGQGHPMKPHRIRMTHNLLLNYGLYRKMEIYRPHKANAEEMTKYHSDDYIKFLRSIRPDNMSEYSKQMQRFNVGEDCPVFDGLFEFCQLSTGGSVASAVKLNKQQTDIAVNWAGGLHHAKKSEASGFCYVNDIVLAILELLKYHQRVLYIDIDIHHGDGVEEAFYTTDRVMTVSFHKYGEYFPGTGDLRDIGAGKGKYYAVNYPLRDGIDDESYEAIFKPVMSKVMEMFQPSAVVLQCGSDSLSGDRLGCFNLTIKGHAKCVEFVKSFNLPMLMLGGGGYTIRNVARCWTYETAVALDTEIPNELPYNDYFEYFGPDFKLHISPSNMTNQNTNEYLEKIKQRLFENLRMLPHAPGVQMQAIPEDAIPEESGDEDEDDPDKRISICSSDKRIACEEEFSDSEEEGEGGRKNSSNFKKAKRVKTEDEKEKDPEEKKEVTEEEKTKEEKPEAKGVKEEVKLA
Chain of Histone deacetylase 3 (O15379 whole entry): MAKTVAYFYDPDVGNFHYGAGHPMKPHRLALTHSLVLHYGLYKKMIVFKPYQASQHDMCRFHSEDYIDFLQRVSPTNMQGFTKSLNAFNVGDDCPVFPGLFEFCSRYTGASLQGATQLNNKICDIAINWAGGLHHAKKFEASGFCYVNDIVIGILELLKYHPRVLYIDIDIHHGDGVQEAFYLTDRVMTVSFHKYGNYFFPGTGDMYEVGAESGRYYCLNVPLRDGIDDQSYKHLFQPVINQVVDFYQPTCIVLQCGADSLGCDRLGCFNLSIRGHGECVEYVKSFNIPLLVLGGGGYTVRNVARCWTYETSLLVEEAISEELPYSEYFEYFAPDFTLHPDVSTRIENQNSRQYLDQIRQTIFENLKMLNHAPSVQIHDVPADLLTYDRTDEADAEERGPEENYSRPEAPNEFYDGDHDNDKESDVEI
Chain of Histone deacetylase 2 (Q92769 whole entry): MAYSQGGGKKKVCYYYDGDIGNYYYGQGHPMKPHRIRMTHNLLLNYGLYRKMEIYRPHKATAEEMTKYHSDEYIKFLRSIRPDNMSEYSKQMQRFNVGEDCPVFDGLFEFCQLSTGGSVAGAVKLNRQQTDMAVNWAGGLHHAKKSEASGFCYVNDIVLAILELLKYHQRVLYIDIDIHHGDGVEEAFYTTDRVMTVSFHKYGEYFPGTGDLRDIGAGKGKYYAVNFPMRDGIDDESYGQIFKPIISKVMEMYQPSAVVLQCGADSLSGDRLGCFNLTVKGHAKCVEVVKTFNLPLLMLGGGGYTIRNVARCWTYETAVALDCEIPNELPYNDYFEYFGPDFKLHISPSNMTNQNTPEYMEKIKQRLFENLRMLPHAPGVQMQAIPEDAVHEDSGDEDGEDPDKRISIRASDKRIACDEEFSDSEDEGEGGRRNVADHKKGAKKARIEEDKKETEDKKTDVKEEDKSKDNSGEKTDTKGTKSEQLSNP

| Structure (SMILES) | IC50 (Histone deacetylase 11) [nM] | IC50 (Histone deacetylase 3) [nM] | IC50 (Histone deacetylase 1) [nM] | IC50 (Histone deacetylase 8) [nM] | IC50 [1] [nM] | IC50 (Histone deacetylase 2) [nM] | IC50 [2] [nM] |
| --- | --- | --- | --- | --- | --- | --- | --- |
| O=C1CC[C@H](C(=O)N[C@H](CCCCCS)C(=O)Nc2ccccc2)N1 | 102 | 138 | 101 | 8100 | 21 | 171 | 40 |
| O=C1NC[C@H](c2ccccc2)[C@H]1C(=O)N[C@@H](CCCCCS)C(=O)Nc1ccccc1 | 12 | 55 | 53 | 2040 | 160 | 2230 | 7 |
| Cc1ccc(NC(=O)[C@H](CCCCCS)NC(=O)[C@@H]2CCCC(=O)N2)cc1 | 3 | 3 | 8 | 360 | 2 | 60 | 4 |
| O=C(CCCCCCS)NCc1ccc(C(F)(F)F)cc1 | 2070 | 2710 | 5960 | 373 | 5300 | 19400 | 6290 |
| O=C1CCC[C@@H](C(=O)N[C@@H](CCCCCS)C(=O)NC2CCCC2)N1 | 89 | 98 | 160 | 450 | 6 | 454 | 189 |
| Cc1cccc(NC(=O)[C@H](CCCCCS)NC(=O)[C@H]2CCC(=O)N2C)c1 | 12 | 5 | 3 | 99 | 1 | 5 | 2 |
| Cc1cccc(NC(=O)[C@H](CCCCCS)NC(=O)[C@H]2CCC(=O)N2)c1 | 5 | 3 | 4 | 106 | 2 | 14 | 4 |
| Cc1cccc(NC(=O)[C@H](CCCCCS)NC(=O)[C@@H]2CCC(=O)N2)c1 | 62 | 4 | 5 | 106 | 1 | 13 | 5 |
| O=C1NCCC[C@H]1C(=O)N[C@@H](CCCCCS)C(=O)Nc1ccccc1 | 9 | 3 | 7 | 62 | 1 | 28 | 9 |
| O=C1CCC[C@H](C(=O)N[C@@H](CCCCCS)C(=O)Nc2ccccc2)N1 | 10 | 6 | 10 | 107 | 5 | 34 | 32 |
| O=C1CCC[C@@H](C(=O)N[C@@H](CCCCCS)C(=O)NCc2ccc(C(F)(F)F)cc2)N1 | 140 | 475 | 386 | 23 | 139 | 1770 | 310 |
| O=C(CCCCCCS)NCc1cccc(OCc2ccccc2)c1 | 1840 | 2950 | 3160 | 904 | 1770 | 14000 | 2990 |
| CN1C(=O)CCC[C@H]1C(=O)N[C@@H](CCCCCS)C(=O)Nc1ccccc1 | 5 | 7 | 11 | 202 | 3 | 70 | 6 |
| O=C1NCCC[C@@H]1C(=O)N[C@@H](CCCCCS)C(=O)Nc1ccccc1 | 15 | 5 | 12 | 122 | 1 | 48 | 11 |
| Cc1cccc(NC(=O)[C@H](CCCCCS)NC(=O)[C@@H]2CCCC(=O)N2)c1 | 1 | 1 | 2 | 135 | 1 | 15 | 1 |
| CN1C(=O)CC[C@@H]1C(=O)N[C@@H](CCCCCS)C(=O)Nc1ccccc1 | 67 | 49 | 58 | 545 | 5 | 103 | 116 |
| O=C(CCCCCCS)NC1CCCC1 | 776 | 897 | 865 | 2330 | 87 | 6640 | 1170 |
| O=C1NC[C@@H](c2ccccc2)[C@H]1C(=O)N[C@@H](CCCCCS)C(=O)Nc1ccccc1 | 24 | 72 | 74 | 2570 | 35 | 1900 | 14 |
| O=C1C[C@@H](C(=O)N[C@@H](CCCCCS)C(=O)Nc2ccccc2)N1 | 10 | 8 | 8 | 61 | 2 | 68 | 9 |
| O=C1NC[C@@H](c2ccccc2)[C@@H]1C(=O)N[C@@H](CCCCCS)C(=O)Nc1ccccc1 | 4 | 2 | 7 | 40 | 4 | 37 | 5 |
| O=C1CCC[C@@H](C(=O)N[C@@H](CCCCCS)C(=O)Nc2ccccc2)N1 | 6 | 10 | 15 | 416 | 6 | 67 | 11 |
| O=C1CC[C@H](C(=O)N[C@@H](CCCCCS)C(=O)Nc2cccc(C(F)(F)F)c2)N1 | 44 | 11 | 5 | 316 | 5 | 12 | 7 |
